From patent publication US11572590B2, “Methods for evaluating tumor cell spheroids using 3D microfluidic cell culture device” (Dana-Farber Cancer Institute, Inc., priority 2017, dated 2023)
Read-outs that look alike come from different tables or passages of the source.

Legend:
Assay in all cases: SelectScreen Kinase Profiling, single point inhibition and IC50 for off-target kinases
Assay type in all cases: biochemical
off-target kinases [1] = biological target: T1, off-target kinases (Homo sapiens, UniProt P15735); details: PHKG2, ATP Km app, ZLYTE
T1 sequence (P15735 1-406): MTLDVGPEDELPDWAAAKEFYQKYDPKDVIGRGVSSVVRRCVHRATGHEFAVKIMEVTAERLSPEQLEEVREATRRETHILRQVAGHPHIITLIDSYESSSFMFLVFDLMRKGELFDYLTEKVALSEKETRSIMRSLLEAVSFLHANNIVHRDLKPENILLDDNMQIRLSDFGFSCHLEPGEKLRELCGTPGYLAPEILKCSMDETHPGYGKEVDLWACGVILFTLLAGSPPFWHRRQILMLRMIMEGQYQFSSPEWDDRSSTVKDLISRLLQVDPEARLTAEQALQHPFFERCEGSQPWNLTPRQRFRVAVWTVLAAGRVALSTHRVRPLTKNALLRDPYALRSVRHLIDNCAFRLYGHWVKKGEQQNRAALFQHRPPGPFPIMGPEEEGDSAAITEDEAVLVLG

off-target kinases [2] = biological target: off-target kinases (Homo sapiens, UniProt Q9HCP0); details: CSNK1G1 (CK1 gamma 1); Cmpd1 1000 μM; ATP Km app; ZLYTE
off-target kinases [3] = biological target: off-target kinases (Homo sapiens, UniProt P36507); details: MAP2K2 (MEK2)
off-target kinases [4] = biological target: off-target kinases (Homo sapiens, UniProt P29317); details: EPHA2, ZLYTE, ATP Km app
off-target kinases [5] = biological target: off-target kinases (Homo sapiens, UniProt P16234); details: PDGFRA (PDGFR alpha), ATP Km app, ZLYTE
off-target kinases [6] = biological target: off-target kinases (Homo sapiens, UniProt O43353); details: RIPK2, LanthaScreen Binding
off-target kinases [7] = biological target: off-target kinases (Homo sapiens, UniProt P08581, M1250T); details: MET M1250T, mutant y, ZLYTE, ATP Km app
off-target kinases [8] = biological target: off-target kinases (Homo sapiens, UniProt Q02763, Y1108F); details: TEK (TIE2) Y1108F, LanthaScreen Binding
off-target kinases [9] = biological target: off-target kinases (Homo sapiens, UniProt Q5S007); details: ATP Km app, Adapta
off-target kinases [10] = biological target: off-target kinases (Homo sapiens, UniProt P54646)
off-target kinases [11] = biological target: off-target kinases (Homo sapiens, UniProt P00519, M351T); details: ABL1 M351T, LanthaScreen Binding

Sequence of off-target kinases (Homo sapiens, UniProt Q9HCP0) (Q9HCP0 whole entry): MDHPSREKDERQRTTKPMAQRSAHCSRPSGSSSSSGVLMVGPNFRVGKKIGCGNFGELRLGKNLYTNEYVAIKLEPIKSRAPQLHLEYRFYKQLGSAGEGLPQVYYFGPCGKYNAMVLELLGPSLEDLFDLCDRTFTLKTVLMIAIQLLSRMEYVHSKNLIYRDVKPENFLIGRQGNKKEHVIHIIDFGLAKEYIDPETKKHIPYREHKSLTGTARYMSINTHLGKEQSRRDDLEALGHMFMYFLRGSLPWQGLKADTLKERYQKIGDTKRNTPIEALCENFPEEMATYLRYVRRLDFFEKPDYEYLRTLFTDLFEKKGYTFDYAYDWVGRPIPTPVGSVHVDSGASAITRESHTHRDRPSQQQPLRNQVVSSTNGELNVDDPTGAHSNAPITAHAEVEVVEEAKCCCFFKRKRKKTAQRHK
Sequence of off-target kinases (Homo sapiens, UniProt Q02763, Y1108F) (Q02763 23-1124 Y1108F): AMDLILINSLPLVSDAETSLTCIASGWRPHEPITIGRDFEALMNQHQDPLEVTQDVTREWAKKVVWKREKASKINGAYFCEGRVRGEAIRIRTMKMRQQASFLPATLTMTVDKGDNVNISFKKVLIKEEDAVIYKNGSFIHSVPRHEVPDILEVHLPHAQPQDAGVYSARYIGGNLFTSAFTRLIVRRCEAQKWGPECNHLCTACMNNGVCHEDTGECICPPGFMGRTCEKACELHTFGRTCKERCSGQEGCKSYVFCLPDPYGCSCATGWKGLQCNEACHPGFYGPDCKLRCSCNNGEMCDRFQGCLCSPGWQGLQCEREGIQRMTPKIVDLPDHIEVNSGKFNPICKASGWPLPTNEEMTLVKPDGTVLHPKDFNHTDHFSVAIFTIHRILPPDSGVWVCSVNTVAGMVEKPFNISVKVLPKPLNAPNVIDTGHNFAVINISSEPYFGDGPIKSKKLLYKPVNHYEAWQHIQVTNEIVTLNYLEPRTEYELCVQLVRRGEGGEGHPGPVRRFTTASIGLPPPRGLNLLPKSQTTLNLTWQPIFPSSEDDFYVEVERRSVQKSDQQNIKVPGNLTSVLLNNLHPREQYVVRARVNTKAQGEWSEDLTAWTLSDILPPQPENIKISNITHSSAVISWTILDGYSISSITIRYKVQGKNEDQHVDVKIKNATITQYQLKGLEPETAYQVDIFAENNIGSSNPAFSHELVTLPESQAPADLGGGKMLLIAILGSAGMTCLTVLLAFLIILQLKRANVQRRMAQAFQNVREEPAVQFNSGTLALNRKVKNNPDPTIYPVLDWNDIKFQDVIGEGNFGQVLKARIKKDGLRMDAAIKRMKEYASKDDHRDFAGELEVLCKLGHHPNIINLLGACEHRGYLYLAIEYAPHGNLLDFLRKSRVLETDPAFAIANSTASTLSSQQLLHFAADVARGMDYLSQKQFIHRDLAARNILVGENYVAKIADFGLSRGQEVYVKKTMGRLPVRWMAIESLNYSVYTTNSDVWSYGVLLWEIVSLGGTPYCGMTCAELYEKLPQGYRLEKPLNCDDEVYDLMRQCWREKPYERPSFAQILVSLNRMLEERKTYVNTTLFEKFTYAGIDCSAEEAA
Sequence of off-target kinases (Homo sapiens, UniProt P29317) (P29317 24-976): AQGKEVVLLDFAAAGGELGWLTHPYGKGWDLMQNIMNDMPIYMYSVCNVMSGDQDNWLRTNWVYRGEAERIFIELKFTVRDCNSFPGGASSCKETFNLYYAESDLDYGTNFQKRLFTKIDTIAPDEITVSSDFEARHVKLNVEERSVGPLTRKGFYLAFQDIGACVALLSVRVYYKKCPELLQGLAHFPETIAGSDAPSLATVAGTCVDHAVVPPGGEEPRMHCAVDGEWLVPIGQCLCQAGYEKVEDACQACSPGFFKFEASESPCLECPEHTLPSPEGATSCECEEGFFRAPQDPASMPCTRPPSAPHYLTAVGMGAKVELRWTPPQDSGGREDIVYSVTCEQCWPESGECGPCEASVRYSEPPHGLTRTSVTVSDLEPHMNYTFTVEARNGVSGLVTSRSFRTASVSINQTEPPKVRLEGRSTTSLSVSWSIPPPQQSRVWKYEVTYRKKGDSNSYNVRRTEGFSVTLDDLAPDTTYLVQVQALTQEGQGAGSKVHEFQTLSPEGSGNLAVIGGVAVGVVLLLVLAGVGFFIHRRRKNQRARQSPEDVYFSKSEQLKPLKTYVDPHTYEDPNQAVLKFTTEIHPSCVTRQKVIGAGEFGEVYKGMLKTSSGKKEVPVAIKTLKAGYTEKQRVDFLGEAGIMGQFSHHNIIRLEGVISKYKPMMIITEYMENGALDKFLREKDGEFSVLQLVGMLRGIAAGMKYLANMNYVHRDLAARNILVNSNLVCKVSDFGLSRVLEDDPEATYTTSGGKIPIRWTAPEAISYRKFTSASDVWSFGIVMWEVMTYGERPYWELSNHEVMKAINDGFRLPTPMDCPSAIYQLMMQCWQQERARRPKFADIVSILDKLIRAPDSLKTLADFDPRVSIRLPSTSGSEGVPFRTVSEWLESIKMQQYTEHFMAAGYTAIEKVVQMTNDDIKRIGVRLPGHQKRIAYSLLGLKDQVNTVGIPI
Sequence of off-target kinases (Homo sapiens, UniProt P16234) (P16234 24-1089): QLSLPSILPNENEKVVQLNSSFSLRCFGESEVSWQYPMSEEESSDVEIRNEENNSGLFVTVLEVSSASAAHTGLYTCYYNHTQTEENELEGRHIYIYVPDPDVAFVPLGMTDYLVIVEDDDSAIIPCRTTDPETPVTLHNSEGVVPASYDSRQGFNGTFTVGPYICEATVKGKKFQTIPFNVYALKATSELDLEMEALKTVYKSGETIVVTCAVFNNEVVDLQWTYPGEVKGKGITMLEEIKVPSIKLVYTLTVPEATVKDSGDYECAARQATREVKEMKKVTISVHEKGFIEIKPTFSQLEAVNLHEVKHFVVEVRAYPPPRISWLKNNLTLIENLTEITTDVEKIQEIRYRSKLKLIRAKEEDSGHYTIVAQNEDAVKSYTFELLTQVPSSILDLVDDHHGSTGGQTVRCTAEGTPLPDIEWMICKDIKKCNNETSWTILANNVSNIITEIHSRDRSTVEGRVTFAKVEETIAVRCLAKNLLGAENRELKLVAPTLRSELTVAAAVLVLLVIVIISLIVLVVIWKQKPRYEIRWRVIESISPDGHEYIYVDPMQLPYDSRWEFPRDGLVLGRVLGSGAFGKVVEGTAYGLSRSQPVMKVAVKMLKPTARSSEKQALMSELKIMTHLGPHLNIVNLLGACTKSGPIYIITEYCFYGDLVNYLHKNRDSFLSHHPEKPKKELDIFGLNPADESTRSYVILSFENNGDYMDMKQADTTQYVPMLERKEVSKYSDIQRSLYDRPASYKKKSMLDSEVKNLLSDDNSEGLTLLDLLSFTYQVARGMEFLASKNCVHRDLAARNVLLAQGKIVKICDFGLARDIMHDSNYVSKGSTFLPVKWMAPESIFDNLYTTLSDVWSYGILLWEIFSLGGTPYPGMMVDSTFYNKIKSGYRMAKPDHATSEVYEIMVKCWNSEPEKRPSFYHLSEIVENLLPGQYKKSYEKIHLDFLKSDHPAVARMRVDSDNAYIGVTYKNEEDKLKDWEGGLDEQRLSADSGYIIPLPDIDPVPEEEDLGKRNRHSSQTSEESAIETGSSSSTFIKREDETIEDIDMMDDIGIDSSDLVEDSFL
Sequence of off-target kinases (Homo sapiens, UniProt P36507) (P36507 whole entry): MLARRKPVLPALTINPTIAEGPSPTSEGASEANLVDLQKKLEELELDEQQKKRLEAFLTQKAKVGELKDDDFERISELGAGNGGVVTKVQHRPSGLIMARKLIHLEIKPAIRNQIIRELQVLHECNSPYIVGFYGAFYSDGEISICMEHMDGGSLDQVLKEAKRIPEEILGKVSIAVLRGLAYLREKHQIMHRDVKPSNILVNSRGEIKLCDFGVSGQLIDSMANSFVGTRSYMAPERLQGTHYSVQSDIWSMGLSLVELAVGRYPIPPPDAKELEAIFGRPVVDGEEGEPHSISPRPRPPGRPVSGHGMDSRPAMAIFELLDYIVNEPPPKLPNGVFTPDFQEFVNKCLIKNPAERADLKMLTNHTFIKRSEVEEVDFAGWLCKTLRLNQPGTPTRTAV
Sequence of off-target kinases (Homo sapiens, UniProt P54646) (P54646 whole entry): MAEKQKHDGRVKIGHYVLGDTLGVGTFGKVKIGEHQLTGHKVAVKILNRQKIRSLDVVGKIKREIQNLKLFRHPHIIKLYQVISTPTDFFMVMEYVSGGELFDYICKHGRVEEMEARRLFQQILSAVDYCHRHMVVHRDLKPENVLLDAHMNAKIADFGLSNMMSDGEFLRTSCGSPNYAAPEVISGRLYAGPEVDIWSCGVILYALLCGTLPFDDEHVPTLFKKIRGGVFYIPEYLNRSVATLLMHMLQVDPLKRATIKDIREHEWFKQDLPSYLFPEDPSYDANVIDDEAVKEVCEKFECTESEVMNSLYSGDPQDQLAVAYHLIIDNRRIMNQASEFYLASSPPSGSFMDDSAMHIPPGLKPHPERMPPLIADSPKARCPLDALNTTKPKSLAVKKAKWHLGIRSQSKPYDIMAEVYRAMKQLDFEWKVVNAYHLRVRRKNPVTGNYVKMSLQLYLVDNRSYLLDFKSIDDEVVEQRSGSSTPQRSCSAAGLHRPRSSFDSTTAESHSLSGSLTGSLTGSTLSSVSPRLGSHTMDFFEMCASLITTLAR
Sequence of off-target kinases (Homo sapiens, UniProt O43353) (O43353 whole entry): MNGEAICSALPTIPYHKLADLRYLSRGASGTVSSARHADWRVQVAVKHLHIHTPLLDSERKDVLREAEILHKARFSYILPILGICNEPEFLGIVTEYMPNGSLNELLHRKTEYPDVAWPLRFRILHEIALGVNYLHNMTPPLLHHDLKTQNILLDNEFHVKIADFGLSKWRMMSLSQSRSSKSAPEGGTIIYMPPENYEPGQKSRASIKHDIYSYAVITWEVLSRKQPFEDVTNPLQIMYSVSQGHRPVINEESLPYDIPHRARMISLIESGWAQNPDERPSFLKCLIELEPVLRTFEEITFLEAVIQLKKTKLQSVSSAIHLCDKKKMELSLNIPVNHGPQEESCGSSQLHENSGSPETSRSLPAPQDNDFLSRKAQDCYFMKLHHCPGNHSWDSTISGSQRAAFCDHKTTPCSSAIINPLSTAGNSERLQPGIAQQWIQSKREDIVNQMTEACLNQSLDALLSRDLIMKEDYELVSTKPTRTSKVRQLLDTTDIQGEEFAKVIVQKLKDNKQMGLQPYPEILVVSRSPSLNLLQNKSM

With `N#Cc1cc(-c2ncnc(Nc3ccc(N4CCN(C5COC5)CC4)cc3)n2)ccc1OC1CCOCC1` [Compound 1, 5-(4-((4-(4-(oxetan-3-yl)piperazin-1-yl)phenyl)amino)-1,3,5-triazin-2-yl)-2-((tetrahydro-2H-pyran-4-yl)oxy)benzonitrile] as the molecule, how does the inhibition (off-target kinases [1]; read-out: % Inhibition 1) read?
Its inhibition is 83%.

What about the inhibition (off-target kinases [1]; read-out: % Inhibition 2) of the same molecule?
The inhibition was 79%.

What about the inhibition (off-target kinases [1]; read-out: % Inhibition Avg) of the same molecule?
Its inhibition is 81%.

And the “% Inhibition 1” value (off-target kinases [2])?
Its value is −14%.

What about the “% Inhibition 2” value (off-target kinases [2]) of the same molecule?
Its value is 2%.

And the “% Inhibition Avg” value (off-target kinases [2])?
The value was −6%.

And the inhibition (off-target kinases [3]; LanthaScreen Binding, read-out: % Inhibition 1)?
Its inhibition is 5%.

And the inhibition (off-target kinases [3]; LanthaScreen Binding, read-out: % Inhibition 2)?
The inhibition was 5%.

And the inhibition (off-target kinases [3]; LanthaScreen Binding, read-out: % Inhibition Avg)?
Its inhibition is 5%.

And the inhibition (off-target kinases [3]; ZLYTE, ATP 100, read-out: % Inhibition 1)?
The inhibition was 13%.

And the inhibition (off-target kinases [3]; ZLYTE, ATP 100, read-out: % Inhibition 2)?
The inhibition was 2%.

And the inhibition (off-target kinases [3]; ZLYTE, ATP 100, read-out: % Inhibition Avg)?
The inhibition was 8%.

And the inhibition (off-target kinases [4]; read-out: % Inhibition 1)?
The inhibition was 1%.

What about the inhibition (off-target kinases [4]; read-out: % Inhibition 2) of the same molecule?
Its inhibition is 12%.

What about the inhibition (off-target kinases [4]; read-out: % Inhibition Avg) of the same molecule?
Its inhibition is 6%.

What about the inhibition (off-target kinases [5]; read-out: % Inhibition 1) of the same molecule?
Its inhibition is 43%.

And the inhibition (off-target kinases [5]; read-out: % Inhibition 2)?
Its inhibition is 43%.

And the inhibition (off-target kinases [5]; read-out: % Inhibition Avg)?
The inhibition was 43%.

And the inhibition (off-target kinases [6]; read-out: % Inhibition 1)?
Its inhibition is 84%.

What about the inhibition (off-target kinases [6]; read-out: % Inhibition 2) of the same molecule?
The inhibition was 86%.

And the inhibition (off-target kinases [6]; read-out: % Inhibition Avg)?
Its inhibition is 85%.

And the inhibition (off-target kinases [7]; read-out: % Inhibition 1)?
Its inhibition is 26%.

And the inhibition (off-target kinases [7]; read-out: % Inhibition 2)?
The inhibition was 34%.

And the inhibition (off-target kinases [7]; read-out: % Inhibition Avg)?
The inhibition was 30%.

And the inhibition (off-target kinases [8]; read-out: % Inhibition 1)?
The inhibition was 53%.

What about the inhibition (off-target kinases [8]; read-out: % Inhibition 2) of the same molecule?
Its inhibition is 52%.

What about the inhibition (off-target kinases [8]; read-out: % Inhibition Avg) of the same molecule?
Its inhibition is 53%.

What about the inhibition (off-target kinases [9]; LRRK2, read-out: % Inhibition 1) of the same molecule?
Its inhibition is 99%.

What about the inhibition (off-target kinases [9]; LRRK2, read-out: % Inhibition 2) of the same molecule?
Its inhibition is 100%.

What about the inhibition (off-target kinases [9]; LRRK2, read-out: % Inhibition Avg) of the same molecule?
Its inhibition is 100%.

And the inhibition (off-target kinases [9]; LRRK2 FL, read-out: % Inhibition 1)?
The inhibition was 98%.

And the inhibition (off-target kinases [9]; LRRK2 FL, read-out: % Inhibition 2)?
Its inhibition is 98%.

What about the inhibition (off-target kinases [9]; LRRK2 FL, read-out: % Inhibition Avg) of the same molecule?
Its inhibition is 98%.

What about the inhibition (off-target kinases [10]; AMPK (A2/B2/G1), LanthaScreen Binding, read-out: % Inhibition 1) of the same molecule?
Its inhibition is 35%.

What about the inhibition (off-target kinases [10]; AMPK (A2/B2/G1), LanthaScreen Binding, read-out: % Inhibition 2) of the same molecule?
Its inhibition is 35%.

And the inhibition (off-target kinases [10]; AMPK (A2/B2/G1), LanthaScreen Binding, read-out: % Inhibition Avg)?
Its inhibition is 35%.

What about the inhibition (off-target kinases [10]; AMPK (A2/B2/G2), LanthaScreen Binding, read-out: % Inhibition 1) of the same molecule?
Its inhibition is 44%.

And the inhibition (off-target kinases [10]; AMPK (A2/B2/G2), LanthaScreen Binding, read-out: % Inhibition 2)?
The inhibition was 45%.

And the inhibition (off-target kinases [10]; AMPK (A2/B2/G2), LanthaScreen Binding, read-out: % Inhibition Avg)?
Its inhibition is 45%.

What about the inhibition (off-target kinases [10]; AMPK A2/B1/G1, ATP Km app, ZLYTE, read-out: % Inhibition 1) of the same molecule?
Its inhibition is 47%.

What about the inhibition (off-target kinases [10]; AMPK A2/B1/G1, ATP Km app, ZLYTE, read-out: % Inhibition 2) of the same molecule?
The inhibition was 46%.

What about the inhibition (off-target kinases [10]; AMPK A2/B1/G1, ATP Km app, ZLYTE, read-out: % Inhibition Avg) of the same molecule?
The inhibition was 46%.

What about the inhibition (off-target kinases [11]; read-out: % Inhibition 1) of the same molecule?
The inhibition was 65%.

And the inhibition (off-target kinases [11]; read-out: % Inhibition 2)?
The inhibition was 69%.

And the inhibition (off-target kinases [11]; read-out: % Inhibition Avg)?
The inhibition was 67%.
